Experimental data as given in patent US5863893A, “Factor VIIa inhibitors from kunitz domain proteins” (Genentech, Inc., priority 1995, dated 1999).

Experiments:
rabbit plasma = assay: PT clotting time in rabbit plasma; type: biochemical; details: 40 μM, rabbit thromboplastin diluted two-fold
Description: Samples of rabbit plasma were assayed using an MLA 800 coagulometer and Dade reagents. Actin FS® was the activator in the APTT assay. Rabbit Thromboplastin with Ca++ was used for the PT assays; the rabbit thromboplastin was diluted two-fold. All mutant inhibitors tested prolonged clotting by at least one fold. […] A greater than 10 fold prolongation of the clotting time at 40 μM was observed.

normal human plasma = assay: Activated partial thromboplastin time (APTT) assay; type: biochemical
Description: For the activated partial thromboplastin time (APTT) assays, the activation time was set at 120 sec and acquisition time at 300 to 600 sec depending on the expected outcome of the assay. Citrated normal human plasma and inhibitor were incubated together. The sample (plasma and inhibitor) and activator (Instrumentation Laboratories Ellagic acid/Phospholipid mix Test Reagent) were automatically pipetted and incubated together for 2 min at 37° C., then CaCl2 was added and clotting time determined by means of optical assessment. The total incubation time of inhibitor with plasma was ca. 3 min before addition of activator, and 5 min before addition of CaCl2.

[1] = test system: New Zealand white rabbits; assay: Rabbit deep medial injury model (carotid artery patency and thrombus weight); type: in vivo; details: for Clot (mgs): mean ±sem
Description: Male New Zealand white rabbits (~4 kg) were anesthetized to surgical anesthesia plane with an IM injection of Ketamine/Xylaxine. The rabbits were placed supine on a restraining board, warmed to 37° C., and the neck and inner thigh area shaved. Teflon catheters were replaced in a marginal ear vein and femoral artery for drug delivery and sample collection respectively. Prior to treatment, blood samples were collected for coagulation tests (APTT and PT). Bleeding time was assessed from a cut made in the cuticle portion of a hind limb nail. Incisions were made in the neck region and the entire left common carotid artery and its branches were surgically isolated. An ultrasonic flow probe (Transonics®) was placed on the common carotid approximately 5 cm caudal to the common-internal bifurcation. After blood flow reached a stable baseline, drugs (saline or test compounds) were delivered via the marginal ear vein. A deflated embolectomy catheter (Fogarty®, 3F) was then introduced into the lumen of the common via an incision in the lingual branch. Blood flow through the artery was stopped briefly while the catheter was introduced and loosely secured with 2-0 silk tie at the incision site. After the catheter was in place and secure, blood flow was restored. The deflated balloon was advanced to within 2 mm of the flow probe and inflated with saline until resistance of the vessel wall was felt. The catheter was pulled back with a steady motion to the first branch and then deflated. This procedure was repeated a total of six times for each experimental animal, after which the catheter was removed. […] Over 40 minutes, blood samples were taken for APTT and PT measurements, cuticle bleeding times were assessed and blood flow through the carotid monitored. Duration of patency was defined as the total amount of time (maximum=40 minutes) that any measurable blood flow is detected in the artery. Patency rate refers to the percentage of animals tested who had carotid artery blood flow ≥5 minutes. At the end of the experiment the rabbit was euthanized and the carotid artery removed and opened. If any thrombus was present, it was removed, blotted and the weight recorded.
[Heparin was dosed as a 25 u/kg bolus followed by a continuous infusion of 1) 0.5 u/kg/min or 2) 1 u/kg/min. Other reagents were given as a 2 mg/kg IV bolus. With the exception of the patency data, values are expressed as means ±sem.]

TF-FVIIa = TF-FVIIa (Homo sapiens, UniProt P08709); details: read-out: Ki, competitive inhibition of TF-FVIIa activity; cited from earlier work
Chain of TF-FVIIa (P08709 213-466 limits assumed): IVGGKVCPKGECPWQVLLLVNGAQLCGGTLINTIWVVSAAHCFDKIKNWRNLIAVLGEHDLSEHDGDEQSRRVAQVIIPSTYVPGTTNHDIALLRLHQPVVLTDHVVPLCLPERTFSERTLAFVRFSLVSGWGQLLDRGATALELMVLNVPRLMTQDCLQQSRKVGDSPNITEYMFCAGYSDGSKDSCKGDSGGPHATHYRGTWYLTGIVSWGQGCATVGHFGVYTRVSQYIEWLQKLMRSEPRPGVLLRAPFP
Chain of TF-FVIIa (P08709 61-212 limits assumed): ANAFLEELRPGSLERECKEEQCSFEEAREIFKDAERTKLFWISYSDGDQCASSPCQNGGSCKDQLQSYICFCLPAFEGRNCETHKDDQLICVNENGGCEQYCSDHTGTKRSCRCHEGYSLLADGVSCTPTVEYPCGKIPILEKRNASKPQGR
Chain of TF-FVIIa (P13726 33-295 partner): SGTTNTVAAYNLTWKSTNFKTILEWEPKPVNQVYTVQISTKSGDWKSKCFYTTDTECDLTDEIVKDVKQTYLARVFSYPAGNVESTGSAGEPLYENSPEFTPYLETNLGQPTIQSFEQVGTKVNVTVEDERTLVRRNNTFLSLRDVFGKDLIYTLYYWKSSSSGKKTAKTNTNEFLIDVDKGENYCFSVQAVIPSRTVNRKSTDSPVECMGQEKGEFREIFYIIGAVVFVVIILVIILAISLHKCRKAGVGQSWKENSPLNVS

TF-induced coagulation = details: cited from earlier work
[2] = 25 u/kg bolus then continuous infusion 0.5 u/kg/min
[3] = 25 u/kg bolus then continuous infusion 1 u/kg/min

## Alzheimer's amyloid β-protein precursor inhibitor (VREVCSEQAETGPCRAMISRWYFDVTEGKCAPFFYGGCGGNRNNFDTEEYCMAVCGSA) [APPI]
Rabbit plasma
  PT, fold increase over baseline: 1.4 fold
Normal human plasma; 40 μM inhibitor, uninhibited clotting time 31 s
  APTT clotting time, fold prolongation: 3.6 fold
Normal human plasma; ca. 7 μM inhibitor
  APTT clotting time, fold prolongation: ca. 3 fold
[1]; 2 mg/kg IV bolus, animals with carotid artery blood flow ≥5 minutes
  Patency (%): 40%
[1]; 2 mg/kg IV bolus, thrombus weight
  Clot (mgs): 49.5 ± 18.2 mgs

## Bovine pancreatic trypsin inhibitor [BPTI]
TF-FVIIa
  Ki: 30 µM
TF-induced coagulation
  concentration needed to prolong the clotting time 1.4-fold in a PT assay: ca. 75 pM

## Heparin
[1]; [2]
  Patency (%): 67%
  Clot (mgs): 13.6 ± 4.7 mgs
[1]; [3]
  Patency (%): 100%
  Clot (mgs): 19.1 ± 8.5 mgs
[1]; doses as in Table III
  patency and clot size compared to the saline control (in words): significantly prolonged patency and reduced clot size
